Results from PubChem BioAssay AID1406 (The Scripps Research Institute Molecular Screening Center, 2008).
Activity calls are given as the source filed them.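 Rule for the calls: active = STAT1 reporter activators whose half-maximal activating concentration EC50 is 10 µM or lower; inactive = EC50 above 10 µM or no activation.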

Tested on: NIH 3T3 STAT1 luciferase reporter, luminescence
Assay: STAT1 reporter activators, potency curves, dose response, counter-screen for STAT3 activator project, cell-based, NIH 3T3, luciferase luminescence (AID 1406)
Conditions: not given

SMILES	EC50
CC1=NN(c2ccccc2)C(=O)/C1=C/c1c(O)[nH]c(=O)[nH]c1=O	> 55.7 µM (inactive)

Same assay, conditions: cells stimulated with IFN-gamma at EC80

SMILES	EC50
COC(=O)c1sccc1NC(=O)c1ccc(Br)s1	> 55.7 µM (inactive)
COc1ccc(NC(=O)N2CCn3c2nc2ccccc23)cc1	> 55.7 µM (inactive)
CCCc1nnc(N2C(=O)c3cccc4cccc(c34)C2=O)s1	> 55.7 µM (inactive)
Cn1nc(-c2ccc(Cl)cc2)c2cc(C(=O)NCCN3CCOCC3)sc21	> 55.7 µM (inactive)
Cn1nc(-c2ccc(Cl)cc2)c2cc(C(=O)NCCCN3CCCC3)sc21	21.6 µM (inactive)
Cc1nn(-c2ccc(Cl)cc2)c(N)c1C(O)(CSc1nccn1C)C(F)(F)F (stereo not given)	> 55.7 µM (inactive)
O=C(CN1CCNCC1)Nc1ccc(Oc2ccccc2)cc1	> 55.7 µM (inactive)
COc1ccc(Cl)cc1-c1nc(-c2ccc(Br)o2)no1	> 55.7 µM (inactive)
O=C(Cc1c[nH]c2ccccc12)Nc1nnc(C2CC2)s1	> 55.7 µM (inactive)
Cn1nc(-c2ccc(Cl)cc2)c2cc(C(=O)NCCCN3CCOCC3)sc21	> 55.7 µM (inactive)
CCOc1ccccc1CN1CCN(Cc2cc3ccccc3[nH]2)CC1CCO (stereo not given)	> 55.7 µM (inactive)
COc1ccc(-c2nnc(Nc3nc4c(OC)cccc4s3)o2)cc1	> 55.7 µM (inactive)
Cc1cccc(NC(=O)c2cc([N+](=O)[O-])ccc2Cl)c1O	> 55.7 µM (inactive)
COCCSc1ccccc1C(=O)NCCc1ccccc1	> 55.7 µM (inactive)
CC(=O)NCCC(=O)N1CCc2c([nH]c3ccccc23)C1c1cccc(Cl)c1 (stereo not given)	> 55.7 µM (inactive)
COCCCNc1nc2c(-c3cccc(C(F)(F)F)c3)nnn2c2ccccc12	> 55.7 µM (inactive)
COc1cccc2sc(Nc3nnc(-c4ccc(F)cc4)o3)nc12	> 55.7 µM (inactive)
CCOC(=O)CC1C(=O)NCCN1C(=O)c1cc2c(=O)n3cccc(C)c3nc2s1 (stereo not given)	> 55.7 µM (inactive)
c1ccc2c(c1)CCCN2c1nc2ccccc2n2cnnc12	> 55.7 µM (inactive)
CCN(CC)S(=O)(=O)c1ccc(-c2nnc3sc4cccc(C)c4n23)cc1	> 55.7 µM (inactive)
NNc1ncnc2sc3c(c12)CCC3	> 55.7 µM (inactive)
O=c1c2ccccc2ncn1Cc1ccco1	> 55.7 µM (inactive)

SMILES	EC50
COC(=O)NNC(=O)c1ccccc1OC	> 55.7 µM (inactive)
O=C(c1cc[n+]([O-])cc1)N1CCc2c([nH]c3ccccc23)C1c1ccccc1Cl (stereo not given)	> 55.7 µM (inactive)
O=C(c1cccnc1)N1CCc2ccccc21	> 55.7 µM (inactive)
O=C(Cc1cnc2ncnn2c1)N1CCc2c([nH]c3ccccc23)C1c1ccccc1F (stereo not given)	> 55.7 µM (inactive)
O=C(O)C1CC=CCC1C(=O)Nc1ccc(S(=O)(=O)N2CCCc3ccccc32)cc1 (stereo not given)	> 55.7 µM (inactive)
Cc1[nH]n(-c2ccccc2)c(=O)c1/C=C1/C=c2ccccc2=N1	> 55.7 µM (inactive)
COc1ccccc1C(=O)Nc1cc(Cl)ccc1O	> 55.7 µM (inactive)
CC(=O)Nc1c(Cl)n(C(C)=O)c2ccccc12	> 55.7 µM (inactive)
COc1ccc(Cl)cc1NC(=O)c1oc(C)nc1C	> 55.7 µM (inactive)
CC(=O)N1N=C(c2ccccc2O)OC1(C)CC(=O)Nc1ccccc1 (stereo not given)	> 55.7 µM (inactive)
COc1ccccc1-c1nnc(SCC(=O)NC2CCCCC2)o1	> 55.7 µM (inactive)
COC(=O)C(NC=O)C(O)(Cc1ccccc1)C(F)(F)F (stereo not given)	> 55.7 µM (inactive)
CC(C)CC1c2[nH]c3ccccc3c2CCN1C(=O)CCC(=O)N(C)C (stereo not given)	> 55.7 µM (inactive)
Nc1nc(-c2ccc(Cl)cc2)nn1C(=O)c1cccs1	> 55.7 µM (inactive)
Cc1noc(/C=C/N(C)C)c1S(=O)(=O)N1CCc2ccccc21	> 55.7 µM (inactive)
Cc1nc2ccccc2cc1O	> 55.7 µM (inactive)
CCOC(=O)c1sc(NCc2ccco2)c(-c2nc3ccccc3s2)c1N	> 55.7 µM (inactive)
Cc1nonc1CC(=O)N1CCc2c([nH]c3ccccc23)C1c1ccccc1F (stereo not given)	> 55.7 µM (inactive)
COc1ccc(Br)cc1C(=O)Nc1cccc(C)c1	> 55.7 µM (inactive)
CC(C)CC(=O)NC(=S)Nc1nc(-c2ccccc2)cs1	> 55.7 µM (inactive)
CN1CCN(CCCNC(=O)c2cc3c(-c4ccc(Cl)cc4)nn(C)c3s2)CC1	> 55.7 µM (inactive)
CCCSc1nnc(Sc2nnnn2-c2ccccc2)s1	> 55.7 µM (inactive)
